# Reference: patent US12357619B2, “Noradrenergic and specific serotonergic anxiolytic and antidepressant, method for the production and use thereof” (ALLA CHEM, LLC, priority 2020, dated 2025)
# Assays:
# Adrenergic α2A = molecular target: T1, Adrenergic α2A (Homo sapiens, UniProt P08913); assay: Receptor activities, Ki (Table 1); assay type: binding
# T1 sequence (P08913 1-465): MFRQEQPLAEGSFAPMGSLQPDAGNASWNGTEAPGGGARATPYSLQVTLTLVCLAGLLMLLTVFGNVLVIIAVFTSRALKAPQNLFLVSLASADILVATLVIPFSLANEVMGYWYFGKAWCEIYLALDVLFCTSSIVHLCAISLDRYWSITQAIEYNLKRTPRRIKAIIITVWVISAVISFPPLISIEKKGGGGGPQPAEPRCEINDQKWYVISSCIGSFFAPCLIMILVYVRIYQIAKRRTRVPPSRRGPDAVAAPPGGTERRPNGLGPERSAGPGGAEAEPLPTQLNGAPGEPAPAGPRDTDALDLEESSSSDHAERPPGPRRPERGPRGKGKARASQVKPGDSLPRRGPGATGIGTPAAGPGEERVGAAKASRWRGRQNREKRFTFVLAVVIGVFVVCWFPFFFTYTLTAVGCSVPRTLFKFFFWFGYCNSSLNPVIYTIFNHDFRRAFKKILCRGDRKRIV
# Adrenergic α2B = molecular target: T2, Adrenergic α2B (Homo sapiens, UniProt P18089); assay: Receptor activities, Ki (Table 1); assay type: binding
# T2 sequence (P18089 1-450): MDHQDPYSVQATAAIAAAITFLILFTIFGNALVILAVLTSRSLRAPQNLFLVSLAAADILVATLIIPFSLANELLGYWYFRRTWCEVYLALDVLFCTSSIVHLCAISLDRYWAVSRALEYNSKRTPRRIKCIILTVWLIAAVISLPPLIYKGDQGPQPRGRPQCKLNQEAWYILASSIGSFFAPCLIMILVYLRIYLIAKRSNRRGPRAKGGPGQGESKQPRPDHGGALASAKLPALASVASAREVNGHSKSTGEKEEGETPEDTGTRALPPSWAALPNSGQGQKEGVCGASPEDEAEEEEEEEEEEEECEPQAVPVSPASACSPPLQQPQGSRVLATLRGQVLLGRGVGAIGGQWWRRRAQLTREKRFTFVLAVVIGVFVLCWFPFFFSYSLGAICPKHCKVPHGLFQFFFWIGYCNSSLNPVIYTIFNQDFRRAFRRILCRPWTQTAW
# Adrenergic α2C = molecular target: T3, Adrenergic α2C (Homo sapiens, UniProt P18825); assay: Receptor activities, Ki (Table 1); assay type: binding
# T3 sequence (P18825 1-462): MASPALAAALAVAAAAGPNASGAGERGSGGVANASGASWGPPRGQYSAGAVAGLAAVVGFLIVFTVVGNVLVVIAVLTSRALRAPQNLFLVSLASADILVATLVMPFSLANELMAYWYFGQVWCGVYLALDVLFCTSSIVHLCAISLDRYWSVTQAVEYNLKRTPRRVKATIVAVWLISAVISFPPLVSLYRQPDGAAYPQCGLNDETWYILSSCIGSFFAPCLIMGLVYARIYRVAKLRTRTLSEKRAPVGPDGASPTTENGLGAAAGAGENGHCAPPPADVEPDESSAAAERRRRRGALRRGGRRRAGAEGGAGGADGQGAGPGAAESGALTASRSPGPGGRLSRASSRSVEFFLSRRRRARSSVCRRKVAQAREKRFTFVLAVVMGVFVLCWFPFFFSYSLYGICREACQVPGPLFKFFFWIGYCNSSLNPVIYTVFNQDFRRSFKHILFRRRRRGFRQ
# [1] = test system: people with generalized anxiety disorder (GAD); assay: Randomized double-blind placebo-controlled GAD study, Hamilton depression scale (HAMD); assay type: in vivo, human; conditions: after 8 weeks
# Method: (§1) Example 12. Efficacy and safety study of the oral drug of this invention made as a pharmaceutical composition of this invention in capsules. […] During the study, 3 scheduled visits were conducted in Week 2, Week 4, and Week 8 to assess the effectiveness and safety of the therapy as well as drug inventory and administration. During all of those visits, the patient's diary was checked, a drug inventory was made and the patients' compliance was assessed. In addition, adverse events, concomitant therapy, and vital signs were evaluated, urine drug screen was performed, and assessments using Hamilton Anxiety Rating Scale (HARS), Hamilton Depression Scale (HAMD), Clinical Global Impression-Severity (CGI-S), Clinical Global Impression-Improvement (CGI-I), and Visual Analog Scale (VAS) were made; women of child-bearing potential will take a urine pregnancy test. Also, during visits at Week 4 and Week 8 a physical examination was performed, body weight was measured, an ECG was performed in 12 leads and blood and urine samples were obtained for laboratory tests, namely: urinalysis and biochemical blood analysis, PK analysis before and 1 hour after taking the study drug (SD), and urinalysis. At Week 4, a blood sample was also obtained for genotyping by CYP2D6. […] During this time, a possible development of SD withdrawal syndrome against the background of placebo was evaluated. […]
# [2] = test system: people with generalized anxiety disorder (GAD); assay: Randomized double-blind placebo-controlled GAD study, clinical global impression-severity (CGI-S); assay type: in vivo, human; conditions: after 8 weeks
# Method: as §1
# volunteers = assay: Safety of increasing doses, single and multiple dosing of capsules in volunteers (Example 11); assay type: in vivo, human
# Method: Example 11. Safety study of increasing doses of the oral drug of this invention made as a pharmaceutical composition of this invention in capsules. Clinical safety study of increasing doses of the antipsychotic drug made as a pharmaceutical composition of this invention in capsules for single and multiple dosing. The study covered one cohort of 4 volunteers taking antipsychotic drug once at a dose of 20 mg, and then at the same dose 2 times a day for 4 days. Based on the three-week safety data obtained in the 20-mg cohort taking antipsychotic drug twice a day, the independent safety data monitoring Committee took a decision to involve a second cohort of 4 volunteers, in which the antipsychotic drug under test was taken once at a dose of 20 mg and then 3 times a day for 4 days at the same dose.
# [3] = 20 mg once, then 20 mg 2 or 3 times a day for 4 days
structure (smiles),measurement,setting,value
"Cc1ccc2c(c1)c1c(n2CCc2ccccc2)CCN(C)C1.Cl [A•HCl, 2,8-dimethyl-5-(2-phenylethyl)-2,3,4,5-tetrahydro-1H-pyrido[4,3-b]indole hydrochloride]",Ki,Adrenergic α2A,1.77 nM
same,Ki,Adrenergic α2B,0.41 nM
same,Ki,Adrenergic α2C,3.55 nM
same,HAMD average change (standard error),"[1]; 40 mg, N = 42, average at Week 0 10.9",−5.2 (0.57)
same,HAMD average change (standard error),"[1]; 60 mg, N = 44, average at Week 0 10.9",−4.4 (0.56)
same,CGI-S average change (standard error),"[2]; 40 mg, N = 42, average at Week 0 4.24",−1.34 (0.19)
same,CGI-S average change (standard error),"[2]; 60 mg, N = 44, average at Week 0 4.28",−1.21 (0.19)
same,Adverse events associated with taking the drug,volunteers; [3],did not reveal any adverse events (AEs) associated with taking the drug
same,Safety profile and tolerability,volunteers; [3],favorable safety profile and good tolerability
same,Occurrence of AE by daily dose,volunteers; 40 mg and 60 mg daily dose cohorts,AE were observed only in volunteers who received a daily dose of 60 mg
